Consider one compound from ChEMBL document CHEMBL5137044, “Expansion of the S-CN-DABO scaffold to exploit the impact on inhibitory activities against the non-nucleoside HIV-1 reverse transcriptase” (Eur J Med Chem, 2022).

For one series, the target named is Cytochrome P450 3A4 (Homo sapiens, UniProt P08684). Briefly: Inhibition of CYP3A4T in human liver microsomes using testosterone as substrate incubated for 15 to 40 mins in presence of NADPH. In kind it is ADME, Microsome. Background: Liver microsomes are a subcellular fraction often used to study metabolism.
A short description of series [1]: Acute toxicity in healthy mouse assessed as kidney damage at 1 g/Kg,IG monitored for 2 weeks by HE staining based assay. In kind it is tissue-based. The following applies: in vivo, po, 1000 mg/kg, 336 h.
The nature of series [2]: Tmax in Sprague-Dawley rat at 10 mg/kg,po measured upto 24 hrs by LC-MS/MS analysis. In kind it is ADME, organism-based. The settings on record: in vivo.
Series [3] is described as follows: Clearance in Sprague-Dawley rat at 10 mg/kg,po measured upto 24 hrs by LC-MS/MS analysis. In kind it is ADME, organism-based. The following applies: in vivo.
Series [4] relates to Human immunodeficiency virus 1. Briefly: Antiviral activity against drug-resistant HIV-1 K103 N mutant infected in human MT4 cells assessed as reduction in virus-induced cytopathic effect incubated for 5 days by MTT assay. In kind it is functional, organism-based. The settings on record: Human immunodeficiency virus 1, K103 N mutant, MT4, 120 h. Background: Damage to the host cells serves as the signal in cytopathic effect assays.

In series [5] the test system is Human immunodeficiency virus 1. Briefly: Antiviral activity against drug-resistant HIV-1 L100I mutant infected in human MT4 cells assessed as reduction in virus-induced cytopathic effect incubated for 5 days by MTT assay. In kind it is functional, organism-based. The settings on record: Human immunodeficiency virus 1, L100I mutant, MT4, 120 h.
Series [6] is described as follows: Fold resistance, ratio of EC50 for antiviral activity against drug-resistant HIV-1 K103 N mutant infected in human MT4 cells to EC50 for antiviral activity against […] HIV-1 infected in human MT4 cells. In kind it is functional.
Series [7] can be described thus: Acute toxicity in healthy mouse assessed as spleen damage at 1 g/Kg,IG monitored for 2 weeks by HE staining based assay. In kind it is tissue-based. The following applies: in vivo, po, 1000 mg/kg, 336 h.
The nature of series [8]: Half life in Sprague-Dawley rat at 10 mg/kg,po measured upto 24 hrs by LC-MS/MS analysis. The settings on record: in vivo. In kind it is ADME, organism-based.
The next series concerns the target hERG (Homo sapiens, UniProt Q12809). Description: Inhibition of human ERG expressed in CHO cells at 40 uM at -80 mV holding potential by automated patch clamp method relative to control. The following applies: CHO cells that express hERG. In kind it is toxicity, cell-based. A general note: The patch-clamp technique gives a direct electrical read-out from membranes.

Series [9] concerns Human immunodeficiency virus 1. Briefly: Antiviral activity against drug-resistant HIV-1 Y188L mutant infected in human MT4 cells assessed as reduction in virus-induced cytopathic effect incubated for 5 days by MTT assay. In kind it is functional, organism-based. The following applies: Human immunodeficiency virus 1, Y188L mutant, MT4, 120 h.
Series [10] can be described thus: Acute toxicity in healthy mouse assessed as liver damage at 1 g/Kg,IG monitored for 2 weeks by HE staining based assay. In kind it is tissue-based. The following applies: in vivo, po, 1000 mg/kg, 336 h.
The nature of series [11]: Apparent volume of distribution in Sprague-Dawley rat at 1 mg/kg,iv measured upto 24 hrs by LC-MS/MS analysis. The settings on record: in vivo, read-out: Vz. In kind it is ADME, organism-based.
The subject of series [12] is Human immunodeficiency virus 1. Briefly: Antiviral activity against drug-resistant HIV-1 E138K mutant infected in human MT4 cells assessed as reduction in virus-induced cytopathic effect incubated for 5 days by MTT assay. The following applies: Human immunodeficiency virus 1, E138K mutant, MT4, 120 h. In kind it is functional, organism-based.
Series [13] is described as follows: Selectivity index, ratio of CC50 for human MT4 cells to EC50 for antiviral activity against NNRTI resistant HIV-1 infected in human MT4 cells. In kind it is toxicity, cell-based. The settings on record: read-out: Ratio CC50/EC50.
Series [14] in a line: Fold resistance, ratio of EC50 for antiviral activity against drug-resistant HIV-1 L100I mutant infected in human MT4 cells to EC50 for antiviral activity against […] HIV-1 infected in human MT4 cells. In kind it is functional.

Cytochrome P450 3A4, sequence (P08684 whole entry): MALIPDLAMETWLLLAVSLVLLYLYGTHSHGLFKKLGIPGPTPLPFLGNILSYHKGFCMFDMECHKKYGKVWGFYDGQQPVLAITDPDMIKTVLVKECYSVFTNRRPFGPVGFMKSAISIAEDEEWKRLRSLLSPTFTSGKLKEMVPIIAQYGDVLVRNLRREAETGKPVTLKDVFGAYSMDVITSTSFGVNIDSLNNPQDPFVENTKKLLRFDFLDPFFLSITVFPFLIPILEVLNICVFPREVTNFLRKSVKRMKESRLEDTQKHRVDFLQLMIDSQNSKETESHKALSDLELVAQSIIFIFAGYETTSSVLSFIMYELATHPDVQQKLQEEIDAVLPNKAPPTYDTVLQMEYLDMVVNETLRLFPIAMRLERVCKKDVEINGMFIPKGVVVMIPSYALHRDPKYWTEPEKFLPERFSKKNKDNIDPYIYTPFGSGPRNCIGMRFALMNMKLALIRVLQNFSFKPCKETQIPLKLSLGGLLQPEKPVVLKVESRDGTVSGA
hERG, sequence (Q12809 whole entry): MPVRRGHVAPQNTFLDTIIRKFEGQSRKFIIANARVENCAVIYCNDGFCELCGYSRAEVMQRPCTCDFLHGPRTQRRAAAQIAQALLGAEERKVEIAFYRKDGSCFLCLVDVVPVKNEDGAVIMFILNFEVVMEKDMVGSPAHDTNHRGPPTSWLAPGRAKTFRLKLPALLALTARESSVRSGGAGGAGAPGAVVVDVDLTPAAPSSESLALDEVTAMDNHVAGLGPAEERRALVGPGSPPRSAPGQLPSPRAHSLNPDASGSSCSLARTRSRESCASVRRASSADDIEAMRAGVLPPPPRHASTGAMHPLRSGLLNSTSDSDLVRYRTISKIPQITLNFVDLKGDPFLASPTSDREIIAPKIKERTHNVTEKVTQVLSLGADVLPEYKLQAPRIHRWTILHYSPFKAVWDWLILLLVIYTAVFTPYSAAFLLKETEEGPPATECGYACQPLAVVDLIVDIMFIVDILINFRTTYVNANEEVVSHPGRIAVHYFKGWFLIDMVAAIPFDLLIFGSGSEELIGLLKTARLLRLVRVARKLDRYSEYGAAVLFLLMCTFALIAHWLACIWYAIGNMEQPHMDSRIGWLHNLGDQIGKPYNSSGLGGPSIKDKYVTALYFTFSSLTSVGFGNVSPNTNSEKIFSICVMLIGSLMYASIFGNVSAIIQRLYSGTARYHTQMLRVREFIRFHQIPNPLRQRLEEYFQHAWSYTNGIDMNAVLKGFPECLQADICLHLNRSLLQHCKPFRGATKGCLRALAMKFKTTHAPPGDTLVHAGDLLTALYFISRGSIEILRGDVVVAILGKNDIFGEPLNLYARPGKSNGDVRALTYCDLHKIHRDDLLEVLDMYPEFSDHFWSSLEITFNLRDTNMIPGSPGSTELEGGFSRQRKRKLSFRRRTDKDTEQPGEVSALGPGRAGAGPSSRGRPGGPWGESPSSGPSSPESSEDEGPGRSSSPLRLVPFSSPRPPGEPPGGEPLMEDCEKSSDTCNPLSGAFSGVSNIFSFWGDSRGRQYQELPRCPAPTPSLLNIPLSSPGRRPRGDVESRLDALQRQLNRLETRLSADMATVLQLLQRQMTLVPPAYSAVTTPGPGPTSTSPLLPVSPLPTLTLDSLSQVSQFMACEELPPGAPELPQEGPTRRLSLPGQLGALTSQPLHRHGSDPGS

As a reminder, the IC50 is the point on the concentration scale where inhibition reaches its midpoint. By Tmax is commonly meant the time from dosing to the highest level. Usually CL/F stands for the apparent clearance, not corrected for the fraction that reaches the circulation. One may read the EC50 as the concentration needed to bring the measured effect to its halfway point. For orientation: half-life means the time needed for the level to fall by half in the phase considered. A word on the inhibition: it is the relative decrease from the control value, in per cent. Regarding `Cc1c(C(C#N)c2c(F)cccc2F)nc(SC(C)C)[nH]c1=O` (stereo unspecified), the IC50 at Cytochrome P450 3A4 is over 50 µM. Moreover, the Activity entry in series [1], in [7] and in series [10] was “Non-Toxic” each time. Also, in series [2], the Tmax turned out to be 3.5 h. Besides, the CL/F in series [3] was 1.24 mL/min/kg. Also, the concentration for a half-maximal effect (EC50) in series [4] came to 3.39 µM; in [5], 1.03 µM; in [9], 69 µM; in series [12], 0.05 µM. Also, the “Ratio EC50” value in [6] is reported as 163; in series [14], 50. The compound also gave a half-life in series [8] of 4.39 h. At hERG, this compound registered an inhibition at 40 µM of 29.4%. Moreover, the Vd in series [11] came out at 0.764 L/kg. For the same compound, in [13], the selectivity ratio came out at 6560.
